“And” between values parts separate entries of the source, which are not always exact repeats. Equal values may be shown once.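 Five compound concentrations were applied to cells in 96-well plates for 48 hours; endpoints were derived by simple linear interpolation of the resulting dose-response curve. GI50 = concentration required for 50% inhibition of growth. The concentration for full growth arrest is given as TGI.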

Some test systems named below: DU-145 prostate; HCT-15 colon; HL-60(TB) leukemia; MDA-N; MOLT-4 leukemia; NCI-H460 lung; RXF 393 renal; SF-268 CNS; SF-539 CNS; UACC-62 melanoma.
Experiment in all cases: growth of human tumour cells (NCI), 48 h

As to `CCCCCC(=O)OC[n+]1ccc(-c2c(COC(=O)NC(C)C)c(COC(=O)NC(C)C)c3n2CCC3)cc1`, the TGI in the experiment on DU-145 prostate is over 100 µM; with HCT-15 colon it was over 100 µM; with HL-60(TB) leukemia, 96.8 µM; with MDA-N it was over 100 µM; in the experiment on MOLT-4 leukemia, over 100 µM; with NCI-H460 lung, over 100 µM. The TGI with RXF 393 renal, in the experiment on SF-268 CNS, in the experiment with SF-539 CNS and with UACC-62 melanoma was over 100 µM throughout.
For the molecule `CCOC(=O)C(C(=O)OCC)C(=S)NC1OC(COC(C)=O)C(OC(C)=O)C(OC(C)=O)C1OC(C)=O` (centres undefined), the TGI in the experiment with DU-145 prostate, in the experiment on HCT-15 colon, with HL-60(TB) leukemia, in the experiment on MDA-N, in the experiment on MOLT-4 leukemia and in the experiment on NCI-H460 lung was over 100 µM each time. Besides, the TGI with RXF 393 renal, in the experiment with SF-268 CNS, in the experiment on SF-539 CNS and with UACC-62 melanoma was over 100 µM in each case.
Turning to `O=c1[nH]nc(-c2ccccc2)c2[nH]c3c(c12)CCCc1ccccc1-3`, the TGI in the experiment with DU-145 prostate amounted to 57.8 µM; in the experiment with HCT-15 colon, 10.4 µM; with HL-60(TB) leukemia it was 46.2 µM; with MDA-N it was 29.4 µM; in the experiment with MOLT-4 leukemia, 33.8 µM; in the experiment with NCI-H460 lung, 60 µM. Also, the TGI with RXF 393 renal is 36 µM; in the experiment on SF-268 CNS it was over 100 µM; in the experiment with SF-539 CNS it was 36.1 µM; in the experiment on UACC-62 melanoma it was 25.1 µM.
As for `COc1ccc(/C=C/C(=O)N[C@@H]2C(=O)N3[C@@H]2SC(C)(C)[C@@H]3C(=O)O)cc1OC`, the TGI in the experiment with DU-145 prostate, with HCT-15 colon, with HL-60(TB) leukemia, in the experiment on MDA-N, with MOLT-4 leukemia and in the experiment on NCI-H460 lung was over 100 µM throughout. In addition, the TGI with RXF 393 renal, in the experiment with SF-268 CNS, with SF-539 CNS and in the experiment with UACC-62 melanoma was over 100 µM throughout.
On to `CNC(=S)c1nnsc1N`, for which the TGI with DU-145 prostate was over 100 µM; with HCT-15 colon, over 100 µM; with HL-60(TB) leukemia it was 0.0686 µM; in the experiment on MDA-N, over 100 µM; with MOLT-4 leukemia, over 100 µM; in the experiment with NCI-H460 lung, 41.5 µM. Also, the TGI in the experiment on RXF 393 renal, with SF-268 CNS, in the experiment on SF-539 CNS and in the experiment with UACC-62 melanoma was over 100 µM throughout.
In the case of `COc1ccc(-c2c3c(n(C4OC(COC(C)=O)C(OC(C)=O)C(OC(C)=O)C4OC(C)=O)c(=S)c2C#N)CCCC3)cc1` (centres undefined), the TGI with DU-145 prostate, in the experiment with HCT-15 colon, in the experiment with HL-60(TB) leukemia, in the experiment on MDA-N, with MOLT-4 leukemia and in the experiment with NCI-H460 lung was over 100 µM each time. In addition, the TGI was 88.7 µM in the experiment on RXF 393 renal, over 100 µM in the experiment on SF-268 CNS, over 100 µM in the experiment with SF-539 CNS and over 100 µM in the experiment with UACC-62 melanoma.
For the molecule `CCN(CC)CCCNc1c2cc(OC)ccc2nc2cccc([N+](=O)[O-])c12`, the TGI in the experiment with DU-145 prostate amounted to 0.426 µM; in the experiment on HCT-15 colon, 0.314 µM; in the experiment on HL-60(TB) leukemia it was 0.511 µM; with MDA-N it was 0.277 µM; in the experiment with MOLT-4 leukemia, 0.554 µM; in the experiment with NCI-H460 lung it was 0.0596 µM. Besides, the TGI amounted to 0.23 µM in the experiment on RXF 393 renal, 0.593 µM with SF-268 CNS, 0.304 µM in the experiment with SF-539 CNS and 0.359 µM in the experiment with UACC-62 melanoma.
In the case of `COc1ccc(-c2c(C#N)c(N)n(C3OC(COC(C)=O)C(OC(C)=O)C(OC(C)=O)C3OC(C)=O)c(=S)c2C#N)cc1` (centres undefined), the GI50 was 84.2 µM and 34 µM with DU-145 prostate; > 100 µM and 27.9 µM in the experiment with HL-60(TB) leukemia; 58.3 µM and 15 µM with MDA-N; > 100 µM and 37 µM with MOLT-4 leukemia. Besides, the TGI in the experiment with DU-145 prostate is over 100 µM; with HCT-15 colon, over 100 µM; in the experiment on HL-60(TB) leukemia, > 100 µM and 48.5 µM; in the experiment on MDA-N it was > 100 µM and 28.2 µM; in the experiment with MOLT-4 leukemia, > 100 µM and 75.1 µM; in the experiment on NCI-H460 lung, over 100 µM. Also, the TGI is 84.6 µM and 72.2 µM in the experiment on RXF 393 renal; > 100 µM and 88.3 µM with SF-268 CNS; 67.5 µM and > 100 µM in the experiment on SF-539 CNS; 73.4 µM and 47.3 µM in the experiment on UACC-62 melanoma.
In the case of `Cc1cccc(C)c1NC(=O)/C(CC(=O)CC(c1ccccc1)c1c(O)c2ccccc2oc1=O)=N/O` (centres undefined), the TGI in the experiment on DU-145 prostate, with HCT-15 colon, with HL-60(TB) leukemia, with MDA-N, in the experiment on MOLT-4 leukemia and in the experiment on NCI-H460 lung was over 100 µM throughout. Moreover, the TGI in the experiment with RXF 393 renal, in the experiment on SF-268 CNS, in the experiment on SF-539 CNS and in the experiment on UACC-62 melanoma was over 100 µM throughout.
Consider `O=C1CCCC1C(O)(C(F)(F)Cl)C(F)(F)Cl` (centres undefined), for which the TGI with DU-145 prostate, in the experiment with HCT-15 colon, in the experiment with HL-60(TB) leukemia, with MDA-N, in the experiment with MOLT-4 leukemia and in the experiment with NCI-H460 lung was over 10 µM in each case. The TGI with RXF 393 renal, in the experiment on SF-268 CNS, in the experiment on SF-539 CNS and in the experiment on UACC-62 melanoma was over 10 µM in each case.
For the molecule `O=C(CCCN1CCC(Nc2ccc(F)cc2)(c2nnnn2C2CCCCC2)CC1)c1ccc(F)cc1`, the TGI in the experiment on DU-145 prostate is 28.4 µM; in the experiment on HCT-15 colon, 42.4 µM; in the experiment on HL-60(TB) leukemia, 40.4 µM; with MDA-N, 30.7 µM; in the experiment with MOLT-4 leukemia, over 100 µM; with NCI-H460 lung it was over 100 µM. In addition, the TGI came to 25.5 µM in the experiment on RXF 393 renal, 33.9 µM in the experiment on SF-268 CNS, 30.5 µM with SF-539 CNS and 11.2 µM in the experiment on UACC-62 melanoma.
For `Cc1nc2ccccc2n1Cc1ccc(NC(=S)NC2CCCCC2)cc1`, the TGI with DU-145 prostate, in the experiment with HCT-15 colon, in the experiment on HL-60(TB) leukemia, in the experiment on MDA-N, with MOLT-4 leukemia and in the experiment on NCI-H460 lung was over 100 µM throughout. The TGI is over 100 µM with RXF 393 renal, over 100 µM in the experiment with SF-268 CNS, over 100 µM in the experiment with SF-539 CNS and over 89.7 µM in the experiment with UACC-62 melanoma.
Regarding `CCOC(=O)C(/C=N/C(N)=S)=C(/O)c1ccccc1`, the TGI in the experiment on DU-145 prostate, in the experiment with HCT-15 colon, in the experiment with HL-60(TB) leukemia, in the experiment with MDA-N, in the experiment on MOLT-4 leukemia and with NCI-H460 lung was over 100 µM each time. Further, the TGI in the experiment on RXF 393 renal, with SF-268 CNS, with SF-539 CNS and with UACC-62 melanoma was over 100 µM throughout.
For the molecule `COc1ccc2oc(=O)c(-c3nc4ccccc4s3)cc2c1`, the TGI is over 67.5 µM in the experiment with DU-145 prostate; over 100 µM in the experiment on HCT-15 colon; over 100 µM in the experiment on HL-60(TB) leukemia; over 67.2 µM in the experiment with MDA-N; over 100 µM with MOLT-4 leukemia; over 100 µM in the experiment on NCI-H460 lung. Also, the TGI in the experiment on RXF 393 renal was 31 µM; in the experiment on SF-268 CNS it was over 100 µM; with SF-539 CNS it was 13.7 µM; in the experiment with UACC-62 melanoma, over 100 µM.
As for `COc1ccc(OC/C(N=Cc2cccnc2)=N/NC(=O)c2ccncc2)cc1`, the TGI was over 100 µM with DU-145 prostate; over 100 µM with HCT-15 colon; over 100 µM in the experiment with HL-60(TB) leukemia; 45.6 µM in the experiment with MDA-N; over 100 µM with MOLT-4 leukemia; over 100 µM in the experiment on NCI-H460 lung. Besides, the TGI with RXF 393 renal, in the experiment on SF-268 CNS, in the experiment on SF-539 CNS and with UACC-62 melanoma was over 100 µM each time.
`CN1CCN2CCN(C)CCN(CC1)CC2`: the TGI with DU-145 prostate, with HCT-15 colon, in the experiment on HL-60(TB) leukemia, with MDA-N, in the experiment with MOLT-4 leukemia and in the experiment on NCI-H460 lung was over 100 µM each time. In addition, the TGI with RXF 393 renal, in the experiment on SF-268 CNS, in the experiment on SF-539 CNS and in the experiment with UACC-62 melanoma was over 100 µM each time.
For the molecule `COc1ccc(OC)c2c1-c1nnnn1CCC2(C)C`, the TGI in the experiment with DU-145 prostate, in the experiment with HCT-15 colon, in the experiment with HL-60(TB) leukemia, in the experiment with MDA-N, in the experiment with MOLT-4 leukemia and in the experiment with NCI-H460 lung was over 100 µM in each case. The TGI in the experiment with RXF 393 renal, in the experiment with SF-268 CNS, in the experiment with SF-539 CNS and with UACC-62 melanoma was over 100 µM in each case.
On to `CSc1c(C#N)c(=O)n(N)c2n[nH]c(C)c12`, for which the TGI in the experiment on DU-145 prostate, in the experiment with HCT-15 colon, in the experiment with HL-60(TB) leukemia, in the experiment with MDA-N, in the experiment on MOLT-4 leukemia and in the experiment with NCI-H460 lung was over 100 µM each time. For the same molecule, the TGI in the experiment with RXF 393 renal, in the experiment on SF-268 CNS, with SF-539 CNS and in the experiment on UACC-62 melanoma was over 100 µM each time.
On to `O=C1CSC2(CC(/C=C/c3ccccc3[N+](=O)[O-])=NN2c2cccc(S(=O)(=O)O)c2)N1c1nc2ccccc2s1` (centres undefined), for which the TGI stood at 27.5 µM in the experiment on DU-145 prostate; 35 µM in the experiment with HCT-15 colon; 63.7 µM in the experiment with HL-60(TB) leukemia; 50.6 µM in the experiment on MDA-N; 52.4 µM in the experiment with MOLT-4 leukemia; 52.7 µM in the experiment on NCI-H460 lung. In addition, the TGI in the experiment on RXF 393 renal was over 75 µM; in the experiment with SF-268 CNS, 41.1 µM; in the experiment on SF-539 CNS it was over 75 µM; in the experiment on UACC-62 melanoma, 29 µM.
For `O=C(CN1CCOCC1)c1ccc2c(c1)oc(=O)n2CCN1CCCCC1`, the TGI in the experiment with DU-145 prostate, in the experiment on HCT-15 colon, with HL-60(TB) leukemia, in the experiment with MDA-N, with MOLT-4 leukemia and with NCI-H460 lung was over 100 µM in each case. For the same molecule, the TGI in the experiment on RXF 393 renal, in the experiment with SF-268 CNS, in the experiment with SF-539 CNS and in the experiment on UACC-62 melanoma was over 100 µM in each case.
Take `CCN(CC)C(=O)CCNC(C)Cc1c[nH]c2ccccc12` (centres undefined): the TGI with DU-145 prostate, in the experiment on HCT-15 colon, in the experiment on HL-60(TB) leukemia, in the experiment with MDA-N, in the experiment with MOLT-4 leukemia and in the experiment with NCI-H460 lung was over 100 µM throughout. Besides, the TGI with RXF 393 renal, with SF-268 CNS, with SF-539 CNS and in the experiment with UACC-62 melanoma was over 100 µM each time.
With `Cc1c(OCc2cccc3ccccc23)ccc2c(=O)cc(S)oc12`, the TGI in the experiment with DU-145 prostate is over 100 µM; with HCT-15 colon it was over 100 µM; in the experiment with HL-60(TB) leukemia, 59.7 µM; in the experiment with MDA-N it was over 100 µM; in the experiment on MOLT-4 leukemia it was over 100 µM; in the experiment with NCI-H460 lung, over 100 µM. For the same molecule, the TGI was over 100 µM with RXF 393 renal, over 100 µM with SF-268 CNS, 65.2 µM in the experiment on SF-539 CNS and 73.3 µM in the experiment on UACC-62 melanoma.

The values are drawn from PubChem BioAssay (NCI).
